Laboratory results: US6573218B1, “Fused-benzene derivatives useful as herbicides” (Ishihara Sangyo Kaisha, Ltd., priority 1998, dated 2003)

Columns and labels:
Assay type in all cases: in vivo
[1] = system: large crabgrass (Digitaria sanguinalis, DIGSA); test: Post-emerge greenhouse herbicide test; conditions: 250 g ai/ha, 14 days after application
Text: (§1) A standard greenhouse herbicide activity screening system was used to evaluate the herbicidal efficacy and crop safety of these test compounds. Seven broadleaf weed species including redroot pigweed (Amaranthus retroflexus, AMARE), velvetleaf (Abutilon theophrasti, ABUTH), sicklepod (Cassia obtusifolia, CASOB), ivyleaf morningglory (Ipomoea hederacea, IPOHE), lambsquarters (Chenopodium album, CHEAL), common ragweed (Ambrosia artemisiifolia L., AMBEL), and cocklebur (Xanthium strumarium, XANST) were used as test species. Four grass weed species including green foxtail (Setaria viridis, SETVI), barnyardgrass (Echinochloa crus-galli, ECHCG), johnsongrass (Sorghum halepense, SORHA), and large crabgrass (Digitaria sanguinalis, DIGSA) were also used. In addition, three crop species, field corn (Zea mays L., var. Dekalb 527, CORN), soybean (Glycine max L., var. Pella 86, SOY), and upland rice (Ory0a sp., var.Tebonnet, RICE) were included.
(§2) All plants were grown in 10 cm square plastic pots which were filled with a sandy loam soil mix. For pre-emerge tests, seeds were planted one day prior to application of the test compounds. For post-emerge tests, seeds were planted 8-21 days prior to the test to allow emergence and good foliage development prior to application of the test substances. At the time of the post-emerge application, plants of all species were usually at the 2-3 leaf stage of development.
(§3) All test compounds were dissolved in acetone and applied to the test units in a volume of 187 l/ha. Test materials were applied at rates ranging from 15 g ai/ha to 1000 g ai/ha using a track sprayer equipped with a TJ8001E even flow flat fan spray nozzle. Plants were arranged on a shelf so that the top of the canopy (post-emerge) or top of the soil surface (pre-emerge) was 40-45 cm below the nozzle. Pressurized air was used to force the test solution through the nozzle as it was mechanically advanced over the top of all test plants/pots. This application simulates a typical commercial field herbicide application.
(§4) In the post-emerge test, a commercial non-ionic surfactant was also included (0.25% v/v) to enhance wetting of the leaf surfaces of target plants. Immediately after application, test units of the pre-emerge applications were watered at the soil surface to incorporate the test materials.
(§5) At 14 days after application of the test materials, phytotoxicity ratings were recorded. A rating scale of 0-100 was used as previously described in Research Methods in Weed Science, 2nd edition, B. Truelove, Ed., Southern Weed Science Society, Auburn University, Auburn, Ala., 1977. Briefly, “0” corresponds to no damage and “100” corresponds to complete death of all plants in the test unit. This scale was used both to determine efficacy against weed species and damage to crop species. Herbicide activity data for various compounds of this invention, which are shown by compound No. in Tables 1-14, are shown in Tables 16 and 17.

[2] = system: lambsquarters (Chenopodium album, CHEAL); test: Post-emerge greenhouse herbicide test; conditions: 250 g ai/ha, 14 days after application
Text: as §1, §2, §3, §4, §5

[3] = system: redroot pigweed (Amaranthus retroflexus, AMARE); test: Post-emerge greenhouse herbicide test; conditions: 250 g ai/ha, 14 days after application
Text: as §1, §2, §3, §4, §5

[4] = system: johnsongrass (Sorghum halepense, SORHA); test: Post-emerge greenhouse herbicide test; conditions: 250 g ai/ha, 14 days after application
Text: as §1, §2, §3, §4, §5

[5] = system: ivyleaf morningglory (Ipomoea hederacea, IPOHE); test: Post-emerge greenhouse herbicide test; conditions: 250 g ai/ha, 14 days after application
Text: as §1, §2, §3, §4, §5

[6] = system: green foxtail (Setaria viridis, SETVI); test: Post-emerge greenhouse herbicide test; conditions: 250 g ai/ha, 14 days after application
Text: as §1, §2, §3, §4, §5

[7] = system: velvetleaf (Abutilon theophrasti, ABUTH); test: Post-emerge greenhouse herbicide test; conditions: 250 g ai/ha, 14 days after application
Text: as §1, §2, §3, §4, §5

[8] = system: sicklepod (Cassia obtusifolia, CASOB); test: Post-emerge greenhouse herbicide test; conditions: 250 g ai/ha, 14 days after application
Text: as §1, §2, §3, §4, §5

[9] = system: barnyardgrass (Echinochloa crus-galli, ECHCG); test: Post-emerge greenhouse herbicide test; conditions: 250 g ai/ha, 14 days after application
Text: as §1, §2, §3, §4, §5

[10] = system: field corn (Zea mays L., var. Dekalb 527, CORN); test: Post-emerge greenhouse crop damage test; conditions: var. Dekalb 527, field corn (Zea mays L.), in vivo, 14 days
Text: as §1, §2, §3, §4, §5

[11] = system: soybean (Glycine max L., var. Pella 86, SOY); test: Post-emerge greenhouse crop damage test; conditions: var. Pella 86, soybean (Glycine max L.), in vivo, 14 days
Text: as §1, §2, §3, §4, §5

[12] = system: upland rice (Ory0a sp., var.Tebonnet, RICE); test: Post-emerge greenhouse crop damage test; conditions: var. Tebonnet, upland rice (Ory0a sp.), in vivo, 14 days
Text: as §1, §2, §3, §4, §5

[13] = system: field corn (Zea mays L., var. Dekalb 527, CORN); test: Pre-emerge greenhouse crop damage test; conditions: var. Dekalb 527, field corn (Zea mays L.), in vivo, 14 days
Text: as §1, §2, §3, §4, §5

[14] = system: soybean (Glycine max L., var. Pella 86, SOY); test: Pre-emerge greenhouse crop damage test; conditions: var. Pella 86, soybean (Glycine max L.), in vivo, 14 days
Text: as §1, §2, §3, §4, §5

[15] = system: upland rice (Ory0a sp., var.Tebonnet, RICE); test: Pre-emerge greenhouse crop damage test; conditions: var. Tebonnet, upland rice (Ory0a sp.), in vivo, 14 days
Text: as §1, §2, §3, §4, §5

[16] = system: large crabgrass (Digitaria sanguinalis, DIGSA); test: Pre-emerge greenhouse herbicide test; conditions: 250 g ai/ha, 14 days after application, scale 0-100 (0 no damage, 100 complete death)
Text: as §1, §2, §3, §4, §5

[17] = system: lambsquarters (Chenopodium album, CHEAL); test: Pre-emerge greenhouse herbicide test; conditions: 250 g ai/ha, 14 days after application, scale 0-100 (0 no damage, 100 complete death)
Text: as §1, §2, §3, §4, §5

[18] = system: redroot pigweed (Amaranthus retroflexus, AMARE); test: Pre-emerge greenhouse herbicide test; conditions: 250 g ai/ha, 14 days after application, scale 0-100 (0 no damage, 100 complete death)
Text: as §1, §2, §3, §4, §5

[19] = system: johnsongrass (Sorghum halepense, SORHA); test: Pre-emerge greenhouse herbicide test; conditions: 250 g ai/ha, 14 days after application, scale 0-100 (0 no damage, 100 complete death)
Text: as §1, §2, §3, §4, §5

[20] = system: ivyleaf morningglory (Ipomoea hederacea, IPOHE); test: Pre-emerge greenhouse herbicide test; conditions: 250 g ai/ha, 14 days after application, scale 0-100 (0 no damage, 100 complete death)
Text: as §1, §2, §3, §4, §5

[21] = system: green foxtail (Setaria viridis, SETVI); test: Pre-emerge greenhouse herbicide test; conditions: 250 g ai/ha, 14 days after application, scale 0-100 (0 no damage, 100 complete death)
Text: as §1, §2, §3, §4, §5

[22] = system: velvetleaf (Abutilon theophrasti, ABUTH); test: Pre-emerge greenhouse herbicide test; conditions: 250 g ai/ha, 14 days after application, scale 0-100 (0 no damage, 100 complete death)
Text: as §1, §2, §3, §4, §5

[23] = system: sicklepod (Cassia obtusifolia, CASOB); test: Pre-emerge greenhouse herbicide test; conditions: 250 g ai/ha, 14 days after application, scale 0-100 (0 no damage, 100 complete death)
Text: as §1, §2, §3, §4, §5

[24] = system: barnyardgrass (Echinochloa crus-galli, ECHCG); test: Pre-emerge greenhouse herbicide test; conditions: 250 g ai/ha, 14 days after application, scale 0-100 (0 no damage, 100 complete death)
Text: as §1, §2, §3, §4, §5

SMILES	Post-emerge Herbicidal Activity DIGSA (phytotoxicity rating 0-100) [1]	Post-emerge Herbicidal Activity CHEAL (phytotoxicity rating 0-100) [2]	Post-emerge Herbicidal Activity AMARE (phytotoxicity rating 0-100) [3]	Post-emerge Herbicidal Activity SORHA (phytotoxicity rating 0-100) [4]	Post-emerge Herbicidal Activity IPOHE (phytotoxicity rating 0-100) [5]	Post-emerge Herbicidal Activity SETVI (phytotoxicity rating 0-100) [6]	Post-emerge Herbicidal Activity ABUTH (phytotoxicity rating 0-100) [7]	Post-emerge Herbicidal Activity CASOB (phytotoxicity rating 0-100) [8]	Post-emerge Herbicidal Activity ECHCG (phytotoxicity rating 0-100) [9]	Post-emerge crop damage CORN (phytotoxicity rating 0-100) [10]	Post-emerge crop damage SOY (phytotoxicity rating 0-100) [11]	Post-emerge crop damage RICE (phytotoxicity rating 0-100) [12]	Pre-emerge Herbicidal Activity CORN (crop damage rating) [13]	Pre-emerge Herbicidal Activity SOY (crop damage rating) [14]	Pre-emerge Herbicidal Activity RICE (crop damage rating) [15]	Pre-emerge Herbicidal Activity DIGSA (phytotoxicity rating) [16]	Pre-emerge Herbicidal Activity CHEAL (phytotoxicity rating) [17]	Pre-emerge Herbicidal Activity AMARE (phytotoxicity rating) [18]	Pre-emerge Herbicidal Activity SORHA (phytotoxicity rating) [19]	Pre-emerge Herbicidal Activity IPOHE (phytotoxicity rating) [20]	further results
CC1Oc2c(Cl)cc(F)c(-n3c(=O)cc(C(F)(F)F)n(C)c3=O)c2NC1=O (stereo not drawn) [Compound 4-3, 3-(8-Chloro-6-fluoro-2-methyl-2H-1,4-benzoxazin-3-one-5-yl)-1-methyl-6-trifluoromethyl-2,4(1H,3H)-pyrimidindione]	70	100	100	90	100	50	100	95	80	100	100	80	99	100	99	100	100	100	100	100	Pre-emerge Herbicidal Activity SETVI (phytotoxicity rating) [21]: 100; Pre-emerge Herbicidal Activity ABUTH (phytotoxicity rating) [22]: 100; Pre-emerge Herbicidal Activity CASOB (phytotoxicity rating) [23]: 100; Pre-emerge Herbicidal Activity ECHCG (phytotoxicity rating) [24]: 99
Cn1c(C(F)(F)F)cc(=O)n(-c2c(F)cc(Cl)c3c2N=C(c2ccccc2)CO3)c1=O [Compound 1-3, 3-(8-Chloro-6-fluoro-3-phenyl-2H-1,4-benzoxazin-5-yl)-1-methyl-6-trifluoromethyl-2,4(1H,3H)-pyrimidindione]	0	20	60	0	30	0	90	0	0	10	30	20	0	0	10	0	100	100	0	0	Pre-emerge Herbicidal Activity SETVI (phytotoxicity rating) [21]: 80; Pre-emerge Herbicidal Activity ABUTH (phytotoxicity rating) [22]: 80; Pre-emerge Herbicidal Activity CASOB (phytotoxicity rating) [23]: 80; Pre-emerge Herbicidal Activity ECHCG (phytotoxicity rating) [24]: 0
